Source: US20240239755A1, “SUBSTITUTED PYRIDAZINONES, SALTS OR N-OXIDES THEREOF AND THEIR USE AS HERBICIDALLY ACTIVE SUBSTANCES” (Bayer Aktiengesellschaft, priority 2021, published 2024)

Assays:
Format in all cases: in vivo
Veronica persica (VERPE) = assay: Herbicidal post-emergence action, 1280 g/ha, VERPE; conditions: visual grading vs untreated controls
From the text: (§1) Seeds of mono- and dicotyledonous weed plants were sown in plastic pots (double sowings with one species of mono- and one species of dicotyledonous weed plants per pot), in sandy loam, covered with soil and grown under controlled growth conditions. 2 to 3 weeks after sowing, the test plants were sprayed in the single-leaf stage. The compounds according to the invention, formulated in the form of wettable powders (WP) or as emulsifiable concentrates (EC), were sprayed onto the green plant parts as an aqueous suspension or as an emulsion, with the addition of 0.5% of an additive, at an application rate of 600 litres of water per hectare (converted). The test plants were placed in the greenhouse for ca. 3 weeks under optimum growth conditions, and then the effect of the preparations was assessed visually in comparison with untreated controls (herbicidal effect in percent (%): 100% effect=plants have died, 0% effect=as control plants).
(§2) Tables B1 to B11 below, show the effects of selected compounds of the general formula (I) according to Table 1 on various harmful plants using an application rate corresponding to 1280 g/ha obtained by the experimental procedure mentioned above.

Lolium rigidum (LOLRI) [1] = assay: Herbicidal pre-emergence action, 1280 g/ha (Table A5); conditions: visual grading after ca. 3 weeks vs untreated controls
From the text: (§3) Seeds of mono- and dicotyledonous weed plants were sown in plastic pots (double sowings with one species of mono- and one species of dicotyledonous weed plants per pot), in sandy loam, and covered with soil. The compounds according to the invention, formulated in the form of wettable powders (WP) or as emulsifiable concentrates (EC), were applied to the surface of the covering soil as an aqueous suspension or as an emulsion, with the addition of 0.5% of an additive, at an application rate of 600 litres of water per hectare (converted). Following treatment, the pots were placed in a greenhouse and kept under optimum growth conditions for the test plants. The visual grading of the damage to the test plants was carried out after ca. 3 weeks in comparison to untreated controls (herbicidal effect in percent (%): 100% effect=plants have died, 0% effect=as control plants). Tables A1 to A11 below, show the effects of selected compounds of the general formula (I) according to Table 1 on various harmful plants and an application rate corresponding to 1280 g/ha obtained by the experimental procedure mentioned above.

Lolium rigidum (LOLRI) [2] = assay: Herbicidal post-emergence action, 1280 g/ha (Table B5); conditions: visual assessment after ca. 3 weeks vs untreated controls
From the text: as §1, with “plants). Tables B1 to B11 below, show the effects of selected compounds of the general formula (I) according to Table 1 on various harmful plants using an application rate corresponding to 1280 g/ha obtained by the experimental procedure mentioned above.” for “plants).”

Kochia scoparia (KCHSC) [3] = assay: Herbicidal post-emergence action, 1280 g/ha (Table B4); conditions: visual assessment after ca. 3 weeks vs untreated controls
From the text: as §1, with “plants). Tables B1 to B11 below, show the effects of selected compounds of the general formula (I) according to Table 1 on various harmful plants using an application rate corresponding to 1280 g/ha obtained by the experimental procedure mentioned above.” for “plants).”

[4] = test system: Matricaria inodora (MATIN); assay: Herbicidal post-emergence action, 1280 g/ha (Table B6); conditions: visual assessment after ca. 3 weeks vs untreated controls
From the text: as §1, with “plants). Tables B1 to B11 below, show the effects of selected compounds of the general formula (I) according to Table 1 on various harmful plants using an application rate corresponding to 1280 g/ha obtained by the experimental procedure mentioned above.” for “plants).”

[5] = test system: Amaranthus retroflexus (AMARE); assay: Herbicidal post-emergence action, 1280 g/ha, AMARE; conditions: visual grading vs untreated controls
From the text: as §1, §2

Stellaria media (STEME) [6] = assay: Herbicidal post-emergence action, 1280 g/ha (Table B9); conditions: visual assessment after ca. 3 weeks vs untreated controls
From the text: as §1, with “plants). Tables B1 to B11 below, show the effects of selected compounds of the general formula (I) according to Table 1 on various harmful plants using an application rate corresponding to 1280 g/ha obtained by the experimental procedure mentioned above.” for “plants).”

Stellaria media (STEME) [7] = assay: Herbicidal pre-emergence action, 1280 g/ha (Table A9); conditions: visual grading after ca. 3 weeks vs untreated controls
From the text: as §3

[8] = test system: Abutilon theophrasti (ABUTH); assay: Herbicidal post-emergence action, 1280 g/ha (Table B1); conditions: visual assessment after ca. 3 weeks vs untreated controls
From the text: as §1, with “plants). Tables B1 to B11 below, show the effects of selected compounds of the general formula (I) according to Table 1 on various harmful plants using an application rate corresponding to 1280 g/ha obtained by the experimental procedure mentioned above.” for “plants).”

Kochia scoparia (KCHSC) [9] = assay: Herbicidal post-emergence action, 320 g/ha, KCHSC; conditions: visual grading after ca. 3 weeks
From the text: as §1
(§4) Tables D1 to D8 below, show the effects of selected compounds of the general formula (I) according to Table 1 on various harmful plants using an application rate corresponding to 320 g/ha obtained by the experimental procedure mentioned above.

Poa annua (POAAN) = assay: Herbicidal pre-emergence action, 1280 g/ha (Table A7); conditions: visual grading after ca. 3 weeks vs untreated controls
From the text: as §3

Stellaria media (STEME) [10] = assay: Herbicidal pre-emergence action, 320 g/ha, STEME; conditions: visual grading after ca. 3 weeks
From the text: as §3, with “plants).” for “plants). Tables A1 to A11 below, show the effects of selected compounds of the general formula (I) according to Table 1 on various harmful plants and an application rate corresponding to 1280 g/ha obtained by the experimental procedure mentioned above.”
Tables C1 to C6 below, show the effects of selected compounds of the general formula (I) according to Table 1 on various harmful plants using an application rate corresponding to 320 g/ha obtained by the experimental procedure mentioned above.

[11] = test system: Matricaria inodora (MATIN); assay: Herbicidal pre-emergence action, 1280 g/ha (Table A6); conditions: visual grading after ca. 3 weeks vs untreated controls
From the text: as §3

Kochia scoparia (KCHSC) [12] = assay: Herbicidal pre-emergence action, 1280 g/ha (Table A4); conditions: visual grading after ca. 3 weeks vs untreated controls
From the text: as §3

[13] = test system: Amaranthus retroflexus (AMARE); assay: Herbicidal pre-emergence action, 1280 g/ha (Table A11); conditions: visual grading after ca. 3 weeks vs untreated controls
From the text: as §3

Stellaria media (STEME) [14] = assay: Herbicidal post-emergence action, 320 g/ha, STEME; conditions: visual grading after ca. 3 weeks
From the text: as §1, §4

[15] = test system: Abutilon theophrasti (ABUTH); assay: Herbicidal pre-emergence action, 1280 g/ha (Table A1); conditions: visual grading after ca. 3 weeks vs untreated controls
From the text: as §3

[16] = test system: Amaranthus retroflexus (AMARE); assay: Herbicidal post-emergence action, 320 g/ha, AMARE; conditions: visual grading after ca. 3 weeks
From the text: as §1, §4

[17] = test system: Abutilon theophrasti (ABUTH); assay: Herbicidal post-emergence action, 320 g/ha, ABUTH; conditions: visual grading after ca. 3 weeks
From the text: as §1, §4

[18] = test system: Matricaria inodora (MATIN); assay: Herbicidal post-emergence action, 320 g/ha, MATIN; conditions: visual grading after ca. 3 weeks
From the text: as §1, §4

Lolium rigidum (LOLRI) [19] = assay: Herbicidal pre-emergence action, 320 g/ha (Table C2); conditions: visual grading after ca. 3 weeks vs untreated controls
From the text: as §3, with “Tables C1” for “Tables A1”, “to C6” for “to A11”, “plants using” for “plants and”, “to 320” for “to 1280”

Row | Structure (SMILES) | herbicidal effect VERPE (Veronica persica (VERPE)) [%] | herbicidal effect LOLRI (Lolium rigidum (LOLRI) [1]) [%] | herbicidal effect KCHSC (Kochia scoparia (KCHSC) [3]) [%] | herbicidal effect MATIN [4] [%] | herbicidal effect AMARE [5] [%] | herbicidal effect STEME (Stellaria media (STEME) [6]) [%] | herbicidal effect STEME (Stellaria media (STEME) [7]) [%] | herbicidal effect ABUTH [8] [%] | herbicidal effect KCHSC (Kochia scoparia (KCHSC) [9]) [%] | herbicidal effect STEME (Stellaria media (STEME) [10]) [%] | herbicidal effect MATIN [11] [%] | herbicidal effect KCHSC (Kochia scoparia (KCHSC) [12]) [%] | herbicidal effect AMARE [13] [%] | herbicidal effect STEME (Stellaria media (STEME) [14]) [%] | herbicidal effect ABUTH [17] [%] | also measured
1 | CCOC(=O)Oc1c(C)nn(C)c(=O)c1Oc1ccccc1OC(F)F [Example I-074] | 90 | 90 | 90 | 90 | 100 | 100 | 90 | 100 | 90 | – | – | – | – | – | – | herbicidal effect LOLRI (Lolium rigidum (LOLRI) [2]): 90%
2 | Cc1nn(C)c(=O)c(Oc2ccccc2F)c1O [Example I-021] | – | – | – | – | – | – | – | – | – | – | – | – | – | – | – | herbicidal effect POAAN (Poa annua (POAAN)): 90%
3 | Cc1nn(C)c(=O)c(Oc2ccccc2Br)c1O [Example I-011] | – | 90 | 90 | – | 90 | – | 100 | – | – | 90 | 90 | 100 | 100 | – | – | –
4 | CCOC(=O)Oc1c(C)nn(C)c(=O)c1Oc1cc(Cl)cc(Cl)c1Cl [Example I-097] | – | 100 | – | – | 90 | 90 | 100 | – | – | 90 | – | – | 100 | 90 | – | herbicidal effect ABUTH [15]: 100%
5 | Cc1nn(C)c(=O)c(Oc2ccc(Cl)cc2C2CC2)c1O [Example I-035] | 90 | – | 90 | 90 | 90 | 90 | – | 90 | – | – | – | 100 | 90 | – | 90 | herbicidal effect AMARE [16]: 90%
6 | Cc1nn(C)c(=O)c(Oc2cccc(Cl)c2)c1O [Example I-004] | – | – | – | – | – | 100 | – | 90 | – | – | – | 90 | 90 | 90 | – | –
7 | Cc1nn(C)c(=O)c(Oc2cc(F)c(F)cc2Br)c1OC(=O)C(C)C [Example I-094] | 90 | – | 90 | 90 | 100 | – | – | 90 | – | – | 100 | – | 100 | – | – | herbicidal effect MATIN [18]: 90%
8 | CCOC(=O)Oc1c(C)nn(C)c(=O)c1Oc1cc(F)cc(F)c1Br [Example I-098] | 90 | – | 90 | 90 | 100 | 90 | 100 | 90 | 90 | – | 100 | – | 100 | 90 | – | –
9 | Cc1nn(C)c(=O)c(Oc2cc(Cl)cc(Cl)c2Cl)c1O [Example I-096] | – | 90 | – | – | 90 | 100 | 100 | – | – | 100 | 100 | – | 90 | 90 | – | herbicidal effect LOLRI (Lolium rigidum (LOLRI) [19]): 90%
10 | Cc1nn(C)c(=O)c(Oc2ccc(Cl)cc2Cl)c1OC(=O)C(C)(C)C [Example I-049] | 90 | – | 90 | 90 | 100 | – | 100 | 90 | 90 | – | – | 90 | – | – | – | –
11 | CCOC(=O)Oc1c(C)nn(C)c(=O)c1Oc1cc(Cl)ccc1C1CC1 [Example I-070] | 90 | 100 | – | 90 | 100 | 100 | 90 | 100 | – | 90 | 100 | – | – | 90 | 100 | herbicidal effect LOLRI (Lolium rigidum (LOLRI) [2]): 100%; herbicidal effect AMARE [16]: 90%; herbicidal effect ABUTH [15]: 100%
12 | Cc1nn(C)c(=O)c(Oc2cccc(F)c2C2CC2)c1O [Example I-073] | – | 90 | 90 | 90 | 90 | 100 | 90 | 100 | – | 90 | 90 | – | – | – | 100 | –
13 | Cc1nn(C)c(=O)c(Oc2ccc(Cl)cc2Cl)c1O [Example I-019, 4-(2,4-dichlorophenoxy)-5-hydroxy-2,6-dimethyl-pyridazin-3-one] | 90 | 90 | 90 | 90 | 90 | 90 | 100 | 90 | 90 | – | – | – | – | – | 90 | herbicidal effect AMARE [16]: 90%
